Measured values: US8871756B2 (Hoffmann-La Roche Inc., priority 2011, dated 2014)
Where a name gives a salt, the structure may show the parent alone.

Each molecule was assayed on RSV Long strain (assay: Viral cytopathic effect (CPE) assay, anti-RSV activity). Conditions: RSV Long strain (ATCC); cell viability after 6 days, Cell Counting kit-8.
Type: cell-based, Respiratory Syncytial Virus
How it was run: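 Cells (6×10^3/well, DMEM with 10% FBS) were infected next day with RSV Long strain, at a dose giving approximately 80–90% CPE, alongside serial half-log compound dilutions. Viability was read after 6 days by CCK-8 absorbance at 450 nm (reference 630 nm), and EC50 was derived from it.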
Work on `Cc1ccc2nc(N3CC[S+]([O-])c4ccccc4C3)nc(NCC3(CN)COC3)c2c1` (single isomer, unassigned; (+)) [Example 62-3, (+)-N-{[3-(Aminomethyl)oxetan-3-yl]methyl}-6-methyl-2-[1-oxido-2,3-dihydro-1,4-benzothiazepin-4(5H)-yl]quinazolin-4-amine] yielded an EC50 of 0.0013 µM.

Same assay, conditions: human respiratory syncytial virus, 144 h, RSV Long strain (ATCC); cell viability after 6 days, Cell Counting kit-8
`CC(=O)Nc1cc(N2CCS(=O)(=O)c3ccccc3C2)nc2ccc(C)cc12` [Example 3-60, N-[2-(1,1-Dioxido-2,3-dihydro-1,4-benzothiazepin-4(5H)-yl)-6-methylquinolin-4-yl]acetamide] showed an EC50 of 0.617 µM. `Cc1ccc2nc(N3CCS(=O)(=O)c4ccccc4C3)cc(NCCc3nn[nH]n3)c2c1` [Example 84, 2-(1,1-Dioxido-2,3-dihydro-1,4-benzothiazepin-4(5H)-yl)-6-methyl-N-[2-(1H-tetrazol-5-yl)ethyl]quinolin-4-amine] gave an EC50 of 2.96 µM. For `NCCCNc1cc(N2CCS(=O)(=O)c3ccccc3C2)nc2cc(Cl)ccc12` [Example 9-11, N-[7-Chloro-2-(1,1-dioxido-2,3-dihydro-1,4-benzothiazepin-4(5H)-yl)quinolin-4-yl]propane-1,3-diamine], the EC50 was 0.953 µM. `NCC1(CNc2cc(N3CCS(=O)(=O)c4ccccc4C3)nc3ccc(C(=O)O)cc23)COC1` [Example 105, 4-({[3-(Aminomethyl)oxetan-3-yl]methyl}amino)-2-(1,1-dioxido-2,3-dihydro-1,4-benzothiazepin-4(5H)-yl)quinoline-6-carboxylic acid] showed an EC50 of 1.08 µM. For `CNc1cc(N2CCS(=O)(=O)c3ccccc3C2)nc2ccc(C)cc12` [Example 3-33, 2-(1,1-Dioxido-2,3-dihydro-1,4-benzothiazepin-4(5H)-yl)-N,6-dimethylquinolin-4-amine trifluoroacetate], the EC50 was 0.426 µM. `Cc1ccc2nc(N3CCS(=O)(=O)c4ccccc4C3)cc(NCCCO)c2c1` [Example 9-5, 3-{[2-(1,1-Dioxido-2,3-dihydro-1,4-benzothiazepin-4(5H)-yl)-6-methylquinolin-4-yl]amino}propan-1-ol] showed an EC50 of 0.179 µM. `Cc1ccc2nc(N3CCS(=O)(=O)c4ccccc4C3)cc(-c3cc[nH]n3)c2c1` [Example 101, 4-[6-Methyl-4-(1H-pyrazol-3-yl)quinolin-2-yl]-2,3,4,5-tetrahydro-1,4-benzothiazepine 1,1-dioxide] showed an EC50 of 8.58 µM. `COc1ccc2c(c1)S(=O)(=O)CCN(c1cc(NCC3(N)COC3)c3ccccc3n1)C2` [Example 2-9, N-[(3-Aminooxetan-3-yl)methyl]-2-(8-methoxy-1,1-dioxido-2,3-dihydro-1,4-benzothiazepin-4(5H)-yl)quinolin-4-amine] was tested, and the EC50 was 0.007 µM. For `Cc1ccc2nc(N3CCS(=O)(=O)c4ccccc4C3)cc(NCC(F)(F)CN)c2c1` [Example 3-19, N-[2-(1,1-Dioxido-2,3-dihydro-1,4-benzothiazepin-4(5H)-yl)-6-methylquinolin-4-yl]-2,2-difluoropropane-1,3-diamine], the EC50 was 0.009 µM. For `Cc1ccc2nc(N3CC[S+]([O-])c4ccccc4C3)cc(NCC(F)(F)CN)c2c1` (centres unmarked) [Example 18-5, N-[2-(1-Oxido-2,3-dihydro-1,4-benzothiazepin-4(5H)-yl)-6-methylquinolin-4-yl]-2,2-difluoropropane-1,3-diamine], the EC50 was 0.057 µM. For `Cc1ccc2nc(N3CCS(=O)(=O)c4ccccc4C3)cc(NCC3(N)COC3)c2c1F` [Example 3-25, N-[(3-Aminooxetan-3-yl)methyl]-2-(1,1-dioxido-2,3-dihydro-1,4-benzothiazepin-4(5H)-yl)-5-fluoro-6-methylquinolin-4-amine], the EC50 was 0.022 µM. `Cc1ccc2nc(N3CCS(=O)(=O)c4ccccc4C3)cc(NCCC#N)c2c1` [Example 83, 3-{[2-(1,1-Dioxido-2,3-dihydro-1,4-benzothiazepin-4(5H)-yl)-6-methylquinolin-4-yl]amino}propanenitrile] gave an EC50 of 0.662 µM. With `Cc1ccc2nc(N3CCS(=O)(=O)c4ccccc4C3)nc(N)c2c1` [Example 59, 2-(1,1-Dioxido-2,3-dihydro-1,4-benzothiazepin-4(5H)-yl)-6-methylquinazolin-4-amine] the EC50 was 0.746 µM. Work on `CCNC(=O)Nc1cc(N2CCC(F)(F)c3ccccc3C2)nc2ccc(C)cc12` [Example 110-14] yielded an EC50 of 0.648 µM. `Cc1ccc2nc(N3CCS(=O)(=O)c4ccccc4C3)cc(NC3CCOCC3)c2c1` [Example 3-27, 2-(1,1-Dioxido-2,3-dihydro-1,4-benzothiazepin-4(5H)-yl)-6-methyl-N-(tetrahydro-2H-pyran-4-yl)quinolin-4-amine] was tested, and the EC50 was 1.39 µM. Molecule `NCCCNc1cc(N2CCS(=O)(=O)c3ccccc3C2)nc2ccc(O)cc12` [Example 29, 4-[(3-Aminopropyl)amino]-2-(1,1-dioxido-2,3-dihydro-1,4-benzothiazepin-4(5H)-yl)quinolin-6-ol] has an EC50 of 0.042 µM. `NCCNc1cc(N2CCCc3ccccc3C2)nc2ccc(OC(F)F)cc12` [Example 118-18, N-[6-(Difluoromethoxy)-2-(1,3,4,5-tetrahydro-2H-2-benzazepin-2-yl)quinolin-4-yl]ethane-1,2-diamine] gave an EC50 of 0.973 µM. For `Cc1ccc2nc(N3CCS(=O)(=O)c4ccccc4C3)cc(NCCS(=O)(=O)CCN)c2c1` [Example 75, N-{2-[(2-Aminoethyl)sulfonyl]ethyl}-2-(1,1-dioxido-2,3-dihydro-1,4-benzothiazepin-4(5H)-yl)-6-methylquinolin-4-amine], the EC50 was 0.002 µM. `Cc1ccc2nc(N3CCS(=O)(=O)c4ccccc4C3)cc(NCCN3CCNCC3)c2c1` [Example 3-28, 2-(1,1-Dioxido-2,3-dihydro-1,4-benzothiazepin-4(5H)-yl)-6-methyl-N-[2-(piperazin-1-yl)ethyl]quinolin-4-amine] showed an EC50 of 0.149 µM. With `Cc1ccc2nc(N3CCS(=O)(=O)c4ccccc4C3)cc(NCC3CCCCN3)c2c1` (centres unmarked) [Example 3-41, 2-(1,1-Dioxido-2,3-dihydro-1,4-benzothiazepin-4(5H)-yl)-6-methyl-N-(piperidin-2-ylmethyl)quinolin-4-amine] the EC50 was 0.071 µM. With `CNCCNc1cc(N2CCS(=O)(=O)c3ccccc3C2)nc2ccc(C)cc12` [Example 3-31, N-[2-(1,1-Dioxido-2,3-dihydro-1,4-benzothiazepin-4(5H)-yl)-6-methylquinolin-4-yl]-N′-methylethane-1,2-diamine] the EC50 was 0.014 µM. With `NCCCc1cc(N2CCCc3ccccc3C2)nc2ccccc12` [Example 128, 3-[2-(1,3,4,5-Tetrahydro-2H-2-benzazepin-2-yl)quinolin-4-yl]propan-1-amine] the EC50 was 7.17 µM. For `NCC1(CNc2cc(N3CCS(=O)(=O)c4ccccc4C3)nc3ccc(F)cc23)COC1` [Example 17-8, N-{[3-(Aminomethyl)oxetan-3-yl]methyl}-2-(1,1-dioxido-2,3-dihydro-1,4-benzothiazepin-4(5H)-yl)-6-fluoroquinolin-4-amine], the EC50 was 0.021 µM. `Cc1ccc2nc(N3CCS(=O)(=O)c4ccc(F)cc4C3)cc(NCC3(N)COC3)c2c1` [Example 1-3, N-[(3-Aminooxetan-3-yl)methyl]-2-(7-fluoro-1,1-dioxido-2,3-dihydro-1,4-benzothiazepin-4(5H)-yl)-6-methylquinolin-4-amine] was tested, and the EC50 was 0.072 µM. `NCCNc1cc(N2CCCc3cccc(F)c3C2)nc2ccc(Cl)cc12` [Example 118-6, N-[6-Chloro-2-(9-fluoro-1,3,4,5-tetrahydro-2H-2-benzazepin-2-yl)quinolin-4-yl]ethane-1,2-diamine] showed an EC50 of 0.173 µM. `Cc1ccc2nc(N3CCC(F)(F)c4ccccc4C3)cc(NCC(O)CN)c2c1` (centres unmarked) [Example 110-4, 1-Amino-3-{[2-(5,5-difluoro-1,3,4,5-tetrahydro-2H-2-benzazepin-2-yl)-6-methylquinolin-4-yl]amino}propan-2-ol] gave an EC50 of 0.06 µM. With `Cc1ccc2nc(N3CC[S+]([O-])c4ccccc4C3)nc(N3CCC(N)C3)c2c1` (centres unmarked) [Example 93-1, 1-[6-Methyl-2-(1-oxido-2,3-dihydro-1,4-benzothiazepin-4(5H)-yl)quinazolin-4-yl]pyrrolidin-3-amine] the EC50 was 0.005 µM. `Cc1ccc2nc(N3CCS(=O)(=O)c4ccccc4C3)cc(NC3(CNC(=O)C(F)(F)F)COC3)c2c1` [Example 70, N-[(3-{[2-(1,1-Dioxido-2,3-dihydro-1,4-benzothiazepin-4(5H)-yl)-6-methylquinolin-4-yl]amino}oxetan-3-yl)methyl]-2,2,2-trifluoroacetamide] showed an EC50 of 0.071 µM. In the case of `NCCNc1cc(N2CCCc3ccccc3C2)nc2ccc(Cl)cc12` [Example 118-5, N-[6-Chloro-2-(1,3,4,5-tetrahydro-2H-2-benzazepin-2-yl)quinolin-4-yl]ethane-1,2-diamine], the EC50 was 0.178 µM. Work on `Cc1ccc2nc(N3CCS(=O)(=O)c4ccccc4C3)cc(N3C[C@@H]4NCCO[C@@H]4C3)c2c1` [Example 8-5, 4-{4-[(4aS,7aR)-Hexahydropyrrolo[3,4-b][1,4]oxazin-6(2H)-yl]-6-methylquinolin-2-yl}-2,3,4,5-tetrahydro-1,4-benzothiazepine 1,1-dioxide] yielded an EC50 of 0.074 µM. Molecule `Cc1ccc2nc(N3CCS(=O)(=O)c4ccccc4C3)cc(NCCO)c2c1F` [Example 9-22, 2-{[2-(1,1-Dioxido-2,3-dihydro-1,4-benzothiazepin-4(5H)-yl)-5-fluoro-6-methylquinolin-4-yl]amino}ethanol] has an EC50 of 0.872 µM. With `NC1(CNc2cc(N3CCS(=O)(=O)c4ccccc4C3)nc3ccncc23)COC1` [Example 2-10, N-[(3-Aminooxetan-3-yl)methyl]-2-(1,1-dioxido-2,3-dihydro-1,4-benzothiazepin-4(5H)-yl)-1,6-naphthyridin-4-amine] the EC50 was 0.005 µM. In the case of `COc1ccc2c(c1)CN(c1cc(NCC3(CN)COC3)c3cc(C)ccc3n1)CCS2(=O)=O` [Example 3-5, N-{[3-(Aminomethyl)oxetan-3-yl]methyl}-2-(7-methoxy-1,1-dioxido-2,3-dihydro-1,4-benzothiazepin-4(5H)-yl)-6-methylquinolin-4-amine], the EC50 was 0.002 µM. `C#Cc1ccc2nc(N3CCS(=O)(=O)c4ccccc4C3)cc(NCCCN)c2c1` [Example 54, N-[2-(1,1-Dioxido-2,3-dihydro-1,4-benzothiazepin-4(5H)-yl)-6-ethynylquinolin-4-yl]propane-1,3-diamine] showed an EC50 of 4.8 µM.
